Key:
NE-4C neural stem cells = experiment: Neuronal differentiation of NE-4C neural stem cells (β-tubulin III staining); type: cell-based, mouse; conditions: 10 nM, β-tubulin III staining
Method: NE-4C cells and their differentiated progeny neurons can be immunohistochemically distinguished by the presence of β-tubulin III only in the latter (Figure 3).
Astroglia cells grown on poly-L-lysine-coated glass cover slips were fixed with 4% paraformaldehyde in PBS for 20 min at room temperature and then permeabilized with Triton X-100 (0.1% v/v in PBS; 5 min). Nonspecific antibodies were blocked by incubation with 3% FBS in PBS (room temperature, 1 h). α-GFAP antibody (rabbit, DAKO) was used in a dilution of 1:2000 and was visualized by anti-rabbit IgG Alexa 594 (1:1000). DAPI (4′,6-diamidino-2-phenylindole) was used for nuclei staining. Fluorescence images were captured manually on a Zeiss Axiovert 200 M microscope fitted with 20- to 60-fold zoom and a Zeiss AxioCam MRm digital camera. Further applied antibodies were tubulin III (Sigma T5076), used at a dilution of 1:1000, and Annexin V. Cy3.18 (Sigma A4963).

[1] = system: retinoid-responsive elements (RARE); experiment: RA reporter assay, F9 RARE-lacZ reporter cells; type: cell-based; conditions: 10 nM; control 45
Text: More typical of retinoic acid is its contribution to cell differentiation during vertebrate embryonic development by interacting with nuclear receptors, which bind to specific retinoid-responsive elements (RARE) within the promoters of subordinate genes, activating their transcription. To verify that retinoate 2 also binds to RARE, we used a reporter assay with F9 teratocarcinoma cells featuring a RARE located within the cis-acting regulatory sequences of the human retinoic acid receptor alpha gene and immediately upstream of the E. coli lacZ genes, which thus acquire retinoid responsivity. LacZ expression in cells treated with various concentrations of 2 was then quantitated by densitometric analysis of β-galactosidase activity visualized by X-Gal staining.
The F9 embryonal carcinoma cell line, stably transfected with the 1.8 kb promoter sequence of RARb2 coupled to the lacZ gene, was used to measure active retinoids. The assay is appropriate for detection of all-trans RA but is able to detect other retinoid isomers as well. The F9 reporter cells were maintained in 10% FCS containing DMEM in the presence of 400 ug/mL G418. A day before the assay, F9 cell were seeded onto 24-well plates (100,000 cell/well). The cells were than treated with various concentrations of 2. […]

## CC1=C(/C=C/C(C)=C/C=C/C(C)=C/C(=O)O)C(C)(C)CCC1 [all-trans retinoic acid, reference compound]
NE-4C neural stem cells
  differentiation of NE-4C stem cells to neurons: differentiate to neurons
[1]
  gray value (densitometric analysis of β-galactosidase activity): 175

From publication PMC9408991, “Antitumor Effects of a New Retinoate of the Fungal Cytotoxin Illudin M in Brain Tumor Models” (International Journal of Molecular Sciences, 2022)
